Reference: US8741940B2, “Microbicidal composition” (Rohm and Haas Company, priority 2005, dated 2014)
Read-outs that look alike come from different tables or passages of the source. Values belong to the compound of their own block, whether it stands above or below them.

How the values were obtained:
Type in all cases: cell-based
Parameters in all cases: key to SI (synergy index): SI = Qa/QA + Qb/QB; >1 antagonism, lower SI = greater synergy
[1] = system: Escherichia coli (E. coli—ATCC #8739); experiment: Synergy test, microtiter plate high resolution MIC assay, bacterium in M9GY medium; settings: for MIC: Escherichia coli
Method: (§1) When the sum of Qa/QA and Qb/QB is greater than one, antagonism is indicated. […] The lower the SI, the greater the synergy shown by that particular mixture. The minimum inhibitory concentration (MIC) of a microbicide is the lowest concentration tested under a specific set of conditions that prevents the growth of added microorganisms.
(§2) Synergy tests were conducted using standard microtiter plate assays with media designed for optimal growth of the test microorganism. Minimal salt medium supplemented with 0.2% glucose and 0.1% yeast extract (M9GY medium) was used for testing bacteria; Potato Dextrose Broth (PDB medium) was used for testing yeast and mold. In this method, a wide range of combinations of microbicides and other personal care raw materials was tested by conducting high resolution MIC assays in the presence of various concentrations of BBIT or MBIT. High resolution MICs were determined by adding varying amounts of microbicide to one column of a microtitre plate and doing subsequent […] dilutions using an automated liquid handling system to obtain a series of endpoints ranging from 2 ppm to 10,000 ppm active ingredient.
(§3) The bacteria were used at a concentration of about 5 ×10^6 bacteria per mL and the yeast and mold at 5×10^5 fungi per mL. These microorganisms are representative of natural contaminants in many consumer and industrial applications. […] (yeast and mold) or 30° C. (bacteria).
(§4) In each test, First Component (A) was BBIT and the Second Component (B) was the other commercial microbicide.
(§5) In each test, First Component (A) was MBIT and the Second Component (B) was the other commercial microbicide.

[2] = system: Candida albicans (C. albicans—ATCC 10231); experiment: Synergy test, microtiter plate high resolution MIC assay, yeast in PDB medium; settings: for MIC: Candida albicans
Method: as §1, §2, §3, §4, §5

[3] = system: Aspergillus niger (A. niger—ATCC 16404); experiment: Synergy test, microtiter plate high resolution MIC assay, mold in PDB medium; settings: for MIC: Aspergillus niger
Method: as §1, §2, §3, §4, §5

[4] = ATCC8739, E. coli 8739, M9GY, 24 hours, alone where Qa = 0, otherwise in the mixture, read-out: Qb (concentration of second component producing the end point, MIC)
[5] = C. albicans 10231, PDB, 24 hours
[6] = ATCC10231, C. albicans 10231, PDB, 24 hours, alone where Qa = 0, otherwise in the mixture, read-out: Qb (concentration of second component producing the end point, MIC)
[7] = ATCC16404, 168 h, A. niger 16404, PDB, 7 days, alone where Qa = 0, otherwise in the mixture, read-out: Qb (concentration of second component producing the end point, MIC)

SMILES: O=C(O)CN(CCN(CC(=O)O)CC(=O)O)CC(=O)O [Ethylenediamine tetraacetic acid]
SI (synergy index) [1]: 1.00
MIC ([1]; ATCC8739, 24 h, read-out: Qb (concentration of second component producing the end point, MIC)): 40000 µg/mL
SI (synergy index) [2]: 1.00
MIC ([2]; ATCC10231, 48 h, read-out: Qb (concentration of second component producing the end point, MIC)): 1000 µg/mL
SI (synergy index) [3]: 1.00
MIC ([3]; ATCC16404, 72 h, read-out: Qb (concentration of second component producing the end point, MIC)): 1600 µg/mL

MIC ([1]; ATCC8739, E. coli 8739, M9GY, 24 hours, 30° C., read-out: MIC of the component acting alone (QA / QB)): 2000 µg/mL
MIC [1, 4]: 2000 µg/mL
MIC ([2]; ATCC10231, C. albicans 10231, PDB, 24 hours, 25° C., read-out: MIC of the component acting alone (QA / QB)): 800 µg/mL
MIC [2, 6]: 2000 µg/mL
MIC ([3]; ATCC16404, 168 h, A. niger 16404, PDB, 7 days, 25° C., read-out: MIC of the component acting alone (QA / QB)): 800 µg/mL
MIC [3, 7]: 800 µg/mL
SMILES: CCOC(=O)c1ccc(O)cc1 [Ethylparaben]
SI (synergy index) ([1]; E. coli 8739, M9GY, 24 hours): 1.00
SI (synergy index) [2, 5]: 1.00
SI (synergy index) ([3]; A. niger 16404, PDB, 7 days): 1.00

MIC ([1]; ATCC8739, E. coli 8739, M9GY, 72 hours, alone where Qa = 0, otherwise in the mixture, read-out: Qb (concentration of second component producing the end point, MIC)): 80 µg/mL
MIC ([2]; ATCC10231, C. albicans 10231, PDB, 72 hours, alone where Qa = 0, otherwise in the mixture, read-out: Qb (concentration of second component producing the end point, MIC)): 80 µg/mL
MIC ([3]; ATCC16404, 72 h, A. niger 16404, PDB, 3 days, alone where Qa = 0, otherwise in the mixture, read-out: Qb (concentration of second component producing the end point, MIC)): 200 µg/mL
SMILES: CCCCC(CC)CN1CN(CC(CC)CCCC)CC(C)(N)C1 (stereo not drawn) [Hexetidine]
SI (synergy index) ([1]; E. coli 8739, M9GY, 72 hours): 1.00
SI ([1]; E. coli 8739 - M9GY, 72 hours, BBIT + hexetidine): 1.00
Qb (Second Component B = Hexetidine) ([1]; E. coli 8739 - M9GY, 72 hours, hexetidine alone (Qa 0) or in mixture with BBIT): 200
SI (synergy index) ([2]; C. albicans 10231, PDB, 72 hours): 1.00
SI ([2]; C. albicans 10231 - PDB, 72 hours, BBIT + hexetidine): 1.00
Qb (Second Component B = Hexetidine) ([2]; C. albicans 10231 - PDB, 72 hours, hexetidine alone (Qa 0) or in mixture with BBIT): 100
SI (synergy index) ([3]; A. niger 16404, PDB, 3 days): 1.00
SI ([3]; A. niger 16404 - PDB, 4 days, BBIT + hexetidine): 1.00
Qb (Second Component B = Hexetidine) ([3]; A. niger 16404 - PDB, 4 days, hexetidine alone (Qa 0) or in mixture with BBIT): 100

MIC [1, 4]: 2000 µg/mL
MIC ([2]; ATCC10231, C. albicans 10231, PDB, 48 hours, alone where Qa = 0, otherwise in the mixture, read-out: Qb (concentration of second component producing the end point, MIC)): 2000 µg/mL
MIC [3, 7]: 800 µg/mL
SMILES: COC(=O)c1ccc(O)cc1 [Methylparaben]
SI (synergy index) ([1]; E. coli 8739, M9GY, 24 hours): 1.00
SI ([1]; E. coli 8739 - M9GY, 72 hours, BBIT with Methylparaben): 1.00
SI (synergy index) ([2]; C. albicans 10231, PDB, 48 hours): 1.00
SI ([2]; C. albicans 10231 - PDB, 24 hours, BBIT with Methylparaben): 1.00
SI (synergy index) ([3]; A. niger 16404, PDB, 7 days): 1.00
SI ([3]; A. niger 16404 - PDB, 3 days, BBIT with Methylparaben): 1.00

SMILES: C/C=C/C=C/C(=O)[O-].[K+] [Potassium sorbate]
SI [1]: 1.00
SI (synergy index) [1]: 1.00
MIC ([1]; ATCC8739, 48 h, read-out: Qb (concentration of second component producing the end point, MIC)): 20000 µg/mL
SI [2]: 1.00
SI (synergy index) [2]: 1.00
MIC ([2]; ATCC10231, 24 h, read-out: Qb (concentration of second component producing the end point, MIC)): 400 µg/mL
SI [3]: 1.00
SI (synergy index) [3]: 1.00
MIC ([3]; ATCC16404, 96 h, read-out: Qb (concentration of second component producing the end point, MIC)): 10000 µg/mL

MIC ([1]; ATCC8739, E. coli 8739, M9GY, 48 hours, alone where Qa = 0, otherwise in the mixture, read-out: Qb (concentration of second component producing the end point, MIC)): 4000 µg/mL
MIC [2, 6]: 2000 µg/mL
MIC [3, 7]: 2000 µg/mL
SMILES: CCCOC(=O)c1ccc(O)cc1 [Propylparaben]
SI (synergy index) ([1]; E. coli 8739, M9GY, 48 hours): 1.00
SI ([1]; E. coli 8739 - M9GY, 24 hours, BBIT with Propylparaben): 1.00
SI (synergy index) [2, 5]: 1.00
SI ([2]; C. albicans 10231 - PDB, 24 hours, BBIT with Propylparaben): 1.00
SI (synergy index) ([3]; A. niger 16404, PDB, 7 days): 1.00
SI ([3]; A. niger 16404 - PDB, 7 days, BBIT with Propylparaben): 1.00
